# Experimental data: ChEMBL document CHEMBL5143654, “Synthesis and biological evaluation of marine natural product, Cryptoechinuline D derivatives as novel antiangiogenic agents” (Bioorg Med Chem Lett, 2022)
# Active and inactive are the calls of the source. No cut-off for these calls is given here.
# Tests used:
# HUVEC [1] = assay: Cytotoxicity against HUVEC cells assessed as cell viability at 50 uM measured after 24 hrs by MTT assay; format: functional; conditions: Homo sapiens, read-out: Activity
# HUVEC [2] = assay: Anti-angiogenesis activity against HUVEC cells assessed as inhibition of horizontal migration at 5 to 10 uM measured after 8 hrs by wound healing assay; format: functional, cell-based; conditions: Homo sapiens, dose 5-10 µM
# HUVEC [3] = assay: Anti-angiogenesis activity against HUVEC cells assessed as decrease in Tie2 phosphorylation at Tyr1102/1100 level at 5 to 10 uM measured after 24 hrs by Western blot analysis; format: functional, cell-based; conditions: Homo sapiens, dose 5-10 µM
# HUVEC [4] = assay: Cytotoxicity against HUVEC cells assessed as inhibition of cell viability measured after 24 hrs by MTT assay; format: functional, cell-based; conditions: Homo sapiens
# HUVEC [5] = assay: Anti-angiogenesis activity against HUVEC cells assessed as inhibition of cell migration at 5 to 10 uM measured after 24 hrs by Matrigel invasion assay; format: functional, cell-based; conditions: Homo sapiens, dose 5-10 µM
# HUVEC [6] = assay: Anti-angiogenesis activity against HUVEC cells assessed as inhibition of vertical migration at 5 to 10 uM measured after 24 hrs by Transwell assay; format: functional, cell-based; conditions: Homo sapiens, dose 5-10 µM
# HUVEC [7] = assay: Antiproliferative activity against HUVEC assessed as decrease in number Edu-positive cells at 5 to 10 uM after 24 hrs by fluorescence microscopic analysis; format: functional, cell-based; conditions: Homo sapiens, dose 5-10 µM
# HUVEC [8] = assay: Anti-angiogenesis activity against HUVEC cells assessed as decrease in Ang2 level at 5 to 10 uM measured after 24 hrs by Western blot analysis; format: functional, cell-based; conditions: Homo sapiens, dose 5-10 µM
SMILES,viability at 50 µM (HUVEC [1]) [%],also measured
C=CC(C)(C)c1[nH]c2ccccc2c1/C=C1\NC(=O)[C@@]2(C[C@@H](C)C=C[C@H]2/C=C/c2c(OC(C)=O)cc(CC=C(C)C)c(O)c2CO)NC1=O (racemic),40.4,–
C=CC(C)(C)c1[nH]c2ccccc2c1/C=C1\NC(=O)[C@@]2(C[C@@H](C)C=C[C@H]2/C=C/c2c(OC)cc(CC=C(C)C)c(O)c2C=O)NC1=O (racemic),31.1,–
C=CC(C)(C)c1[nH]c2ccccc2c1/C=C1\NC(=O)[C@@]2(C[C@@H](C)C=C[C@H]2/C=C/c2c(OC)cc(CC=C(C)C)c(O)c2CN2CCCC2)NC1=O (racemic),81.6,–
C=CC(C)(C)c1[nH]c2ccccc2c1/C=C1\NC(=O)[C@@]2(C[C@@H](C)C=C[C@H]2/C=C/c2c(OC(C)=O)cc(CC=C(C)C)c(OC(C)=O)c2C=O)NC1=O (racemic),5.33,inhibition (HUVEC [2]): Active; inhibition (HUVEC [3]): Active; IC50 (HUVEC [4]): 12.6 µM; inhibition (HUVEC [4]; DDE = dose-dependent effect): Dde; inhibition (HUVEC [5]): Active; inhibition (HUVEC [6]): Active; inhibition (HUVEC [7]): Active; inhibition (HUVEC [8]): Active
C=CC(C)(C)c1[nH]c2ccccc2c1/C=C1\NC(=O)[C@@]2(C[C@@H](C)C=C[C@H]2/C=C/c2c(OC(C)=O)cc(CC=C(C)C)c(O)c2C=O)NC1=O (racemic),33.7,–
C=CC(C)(C)c1[nH]c2ccccc2c1/C=C1\NC(=O)[C@@]2(C[C@@H](C)C=C[C@H]2/C=C/c2c(OC(C)=O)cc(CC=C(C)C)c(OC(C)=O)c2COC(C)=O)NC1=O (racemic),83.2,–
C=CC(C)(C)c1[nH]c2ccccc2c1/C=C1\NC(=O)[C@@]2(C[C@@H](C)C=C[C@H]2/C=C/c2c(OC(C)=O)cc(CC=C(C)C)c(O)c2C#N)NC1=O (racemic),71.8,–
C=CC(C)(C)c1[nH]c2ccccc2c1/C=C1\NC(=O)[C@@]2(C[C@@H](C)C=C[C@H]2/C=C/c2c(OC(C)=O)cc(CC=C(C)C)c(O)c2CN(CC)CC)NC1=O (racemic),94.3,–
C=CC(C)(C)c1[nH]c2ccccc2c1/C=C1\NC(=O)[C@@]2(C[C@@H](C)C=C[C@H]2/C=C/c2c(O)cc(CC=C(C)C)c(OC)c2C=O)NC1=O (racemic),78.7,–
C=CC(C)(C)c1[nH]c2ccccc2c1/C=C1\NC(=O)[C@@]2(C[C@@H](C)C=C[C@H]2/C=C/c2c(OC(C)=O)cc(CC=C(C)C)c(OC(C)=O)c2/C=N\O)NC1=O (racemic),94.4,–
C=CC(C)(C)c1[nH]c2ccccc2c1/C=C1\NC(=O)[C@@]2(C[C@@H](C)C=C[C@H]2/C=C/c2c(OC(C)=O)cc(CC=C(C)C)c(O)c2/C=N\O)NC1=O (racemic),93,–
C=CC(C)(C)c1[nH]c2ccccc2c1/C=C1\NC(=O)[C@@]2(C[C@@H](C)C=C[C@H]2/C=C/c2c(OC)cc(CC=C(C)C)c(OC)c2C=O)NC1=O (racemic),87.5,–
C=CC(C)(C)c1[nH]c2ccccc2c1/C=C1\NC(=O)[C@@]2(C[C@@H](C)C=C[C@H]2/C=C/c2c(O)cc(CC=C(C)C)c(O)c2C=O)NC1=O (racemic),82.1,–
